In article PMC5995905, “Confirmation of high-throughput screening data and novel mechanistic insights into VDR-xenobiotic interactions by orthogonal assays” (Scientific Reports, 2018):
Values joined by “and” are separate entries in the source; they are usually repeats but may differ in a detail not shown here. Equal entries are not always repeated. “Also recorded” adds a separate entry of the source. Where two headings read alike, the source gives them in different places.

Experiments:
human VDR [1] = target: T1, human VDR (Homo sapiens, UniProt P11473); test: Transient transactivation assay (CYP24-Luc), antagonist mode with 3 nM 1,25D3, HEK293T cells; type: cell-based; conditions: for AC50: read-out: AC50
T1 sequence (P11473 1-427): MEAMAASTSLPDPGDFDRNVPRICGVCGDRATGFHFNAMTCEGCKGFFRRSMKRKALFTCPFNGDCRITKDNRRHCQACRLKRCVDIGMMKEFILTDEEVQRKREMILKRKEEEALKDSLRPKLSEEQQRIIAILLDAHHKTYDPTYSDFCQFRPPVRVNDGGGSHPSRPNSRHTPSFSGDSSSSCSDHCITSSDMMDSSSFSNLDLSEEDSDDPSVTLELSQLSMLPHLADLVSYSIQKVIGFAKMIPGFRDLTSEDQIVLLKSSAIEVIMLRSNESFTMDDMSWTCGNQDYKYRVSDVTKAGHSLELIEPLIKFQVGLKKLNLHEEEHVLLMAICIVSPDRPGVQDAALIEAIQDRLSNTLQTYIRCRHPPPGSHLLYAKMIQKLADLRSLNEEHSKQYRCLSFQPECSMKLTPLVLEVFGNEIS

[2] = target: T2, VDR:RXR, VDR:SRC-1 and VDR:NCoR interactions (Homo sapiens, UniProt P11473); test: Mammalian 2-hybrid assay, summary in words of VDR coregulator interactions; type: cell-based
T2 sequence (P11473 1-427): T1 sequence (P11473 1-427)

[3] = target: human VDR ligand-binding domain; parameters: method as in PMID 21543282; conditions: read-out: Tox21 IC 50, cited from earlier work
[4] = target: human VDR ligand-binding domain; parameters: method as in PMID 21543282; conditions: agonist mode; Tox21 qHTS data set; * = range of values; cited from earlier work
human VDR [5] = target: T1, human VDR; test: Transient transactivation assay (CYP24-Luc), agonist mode, HEK293T cells; conditions: for Derived Efficacy (fold induction): top asymptote of Hill or Gain-Loss model, maximum response
VDR:SRC-1 = VDR:SRC-1 (Homo sapiens, UniProt P11473); test: Mammalian 2-hybrid assay, recruitment of coactivator SRC-1 by VDR, Cos7 cells; conditions: agonists; -RXR (empty pSG5); percentage of vitamin D3; conc. in Fig 5: ergocalciferol 60, lithocholic acid 50, calcipotriol 0.05, ethylphenol compound 40, 9 aminoacridine 50, tamoxifen citrate 20 μM
VDR:NCoR = target: T3, VDR:NCoR (Homo sapiens, UniProt P11473); test: Mammalian 2-hybrid assay, recruitment of corepressor NCoR by VDR, Cos7 cells
T3 sequence (P11473 1-427): T1 sequence (P11473 1-427)

human VDR [6] = target: T1, human VDR
[7] = agonists, orthogonal transient transactivation assay, HEK293T cells
[8] = antagonists, transient transactivation assay in the presence of 3 nM 1,25D3
[9] = inhibition of 3 nM 1,25D3-induced response, HEK293T cells, unit given in Fig 3 legend, read-out: Derived IC 50 (Transient transactivation assay)
[10] = top asymptote of Hill or Gain-Loss model, maximum response
[11] = antagonist mode, Tox21 qHTS data set
[12] = Derived IC 50 (Transient transactivation assay)

With Cadmium dinitrate the Activity (human VDR [1]) was “Active”, the “Derived Efficacy (fold inhibition)” value (human VDR [1]) was 82.6111 fold inhibition and the “pattern of change of 1,25D3 induced VDR:coregulator interaction” value [2] was “enhanced recruitment of VDR:RXR and VDR:SRC-1 in both the presence and absence of co-expressed coregulators”. For the same compound, the IC50 [3] was 167 nM.
In the case of C=C1/C(=C\C=C2/CCC[C@]3(C)[C@@H]([C@H](C)/C=C/[C@@H](O)C4CC4)CC[C@@H]23)C[C@@H](O)C[C@@H]1O [Calcipotriol, reference compound], the AC50 [4] is listed as 0.294 nM, the Activity (human VDR [5]; [7]) is listed as “Active” and the “% Induction, pMSRC-1NR + EpSG5” value (VDR:SRC-1) is listed as 142.9%.
For O=S(=O)(O)c1ccccc1 [Benzenesulfonic acid], the “pattern of VDR:coregulator interaction facilitated by the ligand” value [2] is listed as “did not facilitate VDR:RXR or VDR:SRC-1 interactions under any condition”, the AC50 [4] is listed as 9900 nM and the Activity (human VDR [5]) is listed as “Active”. For the same compound, the AC50 (human VDR [5]; read-out: Derived AC50 (Transient transactivation assay)) was 772 nM and the “Derived Efficacy (fold induction)” value (human VDR [5]) was 13.6777 fold induction.
For C[C@]1(Cn2ccnn2)[C@H](C(=O)O)N2C(=O)C[C@H]2S1(=O)=O [Tazobactam sodium, reference compound], the Activity (human VDR [1]; [8]) was “Active”, the IC50 (human VDR [1]; [9]) was 283 nM and the “Derived Efficacy (fold inhibition)” value (human VDR [1]; [10]) was 79.1108 fold inhibition. The IC50 [3, 11] was 1980 nM.
With COc1cccc2c1cc([N+](=O)[O-])c1c(C(=O)O)cc3c(c12)OCO3 [Aristolochic acid] the Activity (human VDR [1]) was “Active”, the “Derived Efficacy (fold inhibition)” value (human VDR [1]) was 76.1807 fold inhibition and the IC50 (human VDR [1]; [12]) was 820 nM and 827 nM. The “pattern of change of 1,25D3 induced VDR:coregulator interaction” value [2] was “enhanced the interaction between VDR:SRC-1 only in the absence of RXR”, the IC50 [3] was 7320 nM and the “Fold Change (pMNCoR + EpSG5)” value (VDR:NCoR) was 25.8.
For Cc1cc(O)c2ccccc2c1O [Menadiol, reference compound], the Activity (human VDR [1]; [8]) was “Active”, the Activity (human VDR [1]; antagonists, transient transactivation assay in the presence of 3 nM 1,25D3, listed as menadiol) was “moderate to marked synergistic activity” and the IC50 (human VDR [1]; [9]) was 3490 nM and 3500 nM. The AC50 (human VDR [1]) was 45800 nM, the “Derived Efficacy (fold inhibition)” value (human VDR [1]; [10]) was 101.7383 fold inhibition and the IC50 [3, 11] was 979 nM. For the same compound, the Activity (human VDR [5]; [7]) was “very weak agonist activity”.
In the case of Tributyltin chloride, the IC50 [3] is listed as 959 nM.
For Nc1nc(N)c2nc(CNc3ccc(C(=O)N[C@@H](CCC(=O)O)C(=O)O)cc3)cnc2n1 [reference compound], the “pattern of VDR:coregulator interaction facilitated by the ligand” value [2] is given as “did not facilitate VDR:RXR or VDR:SRC-1 interactions under any condition”, the Activity (human VDR [6]) is given as “Active” and the AC50 [4] is given as 11800 nM. The AC50 (human VDR [5]; Derived AC50 (Transient transactivation assay)) was 33700 nM and the “Derived Efficacy (fold induction)” value (human VDR [5]) was 16.3718 fold induction.
In the case of C[C@@H]1O[C@@H](O[C@@H]2C=C3CC[C@@H]4[C@H](CC[C@]5(C)[C@@H](c6ccc(=O)oc6)CC[C@]45O)[C@@]3(C)CC2)[C@H](O)[C@H](O)[C@H]1O [Proscillaridin, reference compound], the Activity (human VDR [1]) is reported as “Active”, the “Derived Efficacy (fold inhibition)” value (human VDR [1]) is reported as 14.1669 fold inhibition and the IC50 (human VDR [1]; [12]) is reported as 1890 nM and 1900 nM. For the same compound, the “pattern of change of 1,25D3 induced VDR:coregulator interaction” value [2] was “selectively inhibited VDR:SRC-1 interactions only in the presence of full length wild type RXR; also recorded: enhanced the interaction between VDR:RXR only in the presence of co transfected SRC-1”, the IC50 [3] was 43.4 nM and the “Fold Change (pMNCoR + EpSG5)” value (VDR:NCoR) was 2.8.
For CN(C)C(=S)SSC(=S)N(C)C [Thiram], the Activity (human VDR [1]; [8]) was “Active”, the AC50 (human VDR [1]; experimental AC50 as listed in Fig 4a, antagonists) was 479 nM and the IC50 (human VDR [1]; [9]) was 420 nM and 428 nM. The “Derived Efficacy (fold inhibition)” value (human VDR [1]; [10]) was 76.1807 fold inhibition and the “Fold Change (pMNCoR + EpSG5)” value (VDR:NCoR) was 1.7.
In the case of COC(=O)c1nc(Cl)c(Cl)nc1N [Methyl 3-amino-5,6-dichloropyrazine-2-carboxylate], the AC50 [4] is listed as 8780 nM, the AC50 (human VDR [5]; Derived AC50 (Transient transactivation assay), agonist mode, HEK293T cells, CYP24A1-Luc) is listed as 446 nM and the Activity (human VDR [5]; [7]) is listed as “Active”. The “Derived Efficacy (fold induction)” value (human VDR [5]) was 44.5165 fold induction.
In the case of CCC[CH2][Sn]([Cl])([Cl])[CH2]CCC [Dibutyltin dichloride], the Activity (human VDR [1]) is reported as “Active”, the “Derived Efficacy (fold inhibition)” value (human VDR [1]) is reported as 20.5748 fold inhibition and the IC50 (human VDR [1]; read-out: Derived IC 50 (Transient transactivation assay)) is reported as 540 nM and 542 nM. The “pattern of change of 1,25D3 induced VDR:coregulator interaction” value [2] was “consistently attenuate recruitment VDR:RXR and VDR:SRC-1 in both the presence and absence of co-expressed coregulators” and the IC50 [3] was 82.3 nM.
In the case of O=C([O-])c1ccccc1-c1c2ccc(=O)cc-2oc2cc([O-])ccc12.[Na+].[Na+] [Fluorescein sodium, reference compound], the “Derived Efficacy (fold inhibition)” value (human VDR [1]; [10]) is given as 101.7383 fold inhibition and the IC50 [3, 11] is given as 356 nM.
